# Like-named read-outs stand apart in the source and are kept apart here.
# Assays:
# [1] = system: erythrocytes; assay: Hemolytic activity assay (Giemsa smeared culture images); assay type: cell-based; conditions: concentrations up to 10 μM
# Procedure: and two formamide derivatives.
# 2 and GB209-3 compounds tested after 48Hr and 72Hr drug incubation. […]
# [2] = molecular target: hPXR (human pregnane X receptor) (Homo sapiens, UniProt O75469); assay: Enhanced Cross Screen Panel (eXP): hPXR; assay type: in vitro ADME
# [3] = system: P. falciparum Dd2 (MRA-156); assay: SYBR Green I growth inhibition assay, Dd2; assay type: cell-based; conditions: Plasmodium falciparum
# Procedure: (§1) Fig. 1. […] (B) SYBR Green–based dose response assays were conducted on early-ring stage parasites (6 hours after invasion). […] 3D7 WT (blue), NF54 (green), drug-resistant strains Dd2 (red), HB3 (black), W2 (gray), and D10-ACP-GFP (purple) lines (Sigmoidal, 4PL, X is concentration, n ≥ 3, nonlinear regression, CI: 95%). (C) Schematic diagram of the development of P. falciparum after two consecutive erythrocytic cycles. The time points at which MED6-189 was introduced are depicted in green. HPS, hours post synchronization. […] The images depict various developmental stages of the parasite’s intraerythrocytic life cycle. Bordered images represent time points when drug was first introduced (n = 3 biological replicates, P < 0.05).
# (§2) Detailed information on materials and methods is available in the supplementary materials. […] P. knowlesi assays were quantitatively measured by flow cytometry using SYBR Green I and Mitrotracker Deep Red, as previously described ([84], [85]), on a Beckman Coulter CytoFLEX. […]
# (§3) P. falciparum in vitro SYBR green fluorescence-based assays The anti-malarial activity of individual analogues were evaluated in-vitro against P. falciparum 3D7 (MRA-102, drug […]
# (§4) green-I based fluorescence assay. Parasite growth rate and stages of development were determined via microscopy through Giemsa-stained smears of the cultures. […]
# [4] = system: P. falciparum NF54 (MRA-1000); assay: SYBR Green I growth inhibition assay, NF54; assay type: cell-based, Plasmodium falciparum; conditions: early-ring stage, 72 h exposure
# Procedure: as §1, §2, §3, §4
# [5] = system: P. falciparum NF54 gametocytes; assay: Gametocyte development (sexual stage phenotype) assay; assay type: cell-based, Plasmodium falciparum; design: gametocytes after high dose: dose or concentration left out as unconfirmed
# From the text: Parasitemia and sexual stage phenotype analyses To understand the phenotypic effects of […]
# exposed to stress induced gametocyte induction followed by treatment with N-acetyl glucosamine (NAG; Sigma-Aldrich) supplemented media for 6-7 days to eliminate remaining asexual parasites.
# Upon first signs of gametocyte formation observed through giemsa stained smears (5-7 post stress […]
# with 3 biological replicates per condition. Culture media were replaced daily with reintroduction of the drug. Gametocyte parasitemia and proportion of the different sexual blood stages were determined by counting Giemsa-stained blood smears by light microscopy at every 24-hour time
# Sequence of hPXR (human pregnane X receptor) (O75469 whole entry): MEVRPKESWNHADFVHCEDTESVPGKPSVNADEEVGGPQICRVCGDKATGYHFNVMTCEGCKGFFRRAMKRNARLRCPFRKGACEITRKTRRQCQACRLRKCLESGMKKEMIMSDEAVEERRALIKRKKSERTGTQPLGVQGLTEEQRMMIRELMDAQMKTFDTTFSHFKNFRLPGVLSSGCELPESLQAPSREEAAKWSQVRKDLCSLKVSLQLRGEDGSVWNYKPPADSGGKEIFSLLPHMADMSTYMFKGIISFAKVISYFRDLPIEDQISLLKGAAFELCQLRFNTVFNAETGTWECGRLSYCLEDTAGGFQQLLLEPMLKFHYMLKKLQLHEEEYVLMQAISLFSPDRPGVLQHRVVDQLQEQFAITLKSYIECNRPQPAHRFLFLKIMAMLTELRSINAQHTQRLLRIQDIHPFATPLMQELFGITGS
smiles,measurement,setting,value
[C-]#[N+][C@]1(C)CC[C@H]2[C@@H]([C@@H](C(C)C)CC[C@]2(C)[N+]#[C-])[C@H]1O [MED6-189],hemolytic activity,[1],no hemolytic activity
same,IC50,[2],7400 nM
same,IC50,"[3]; DD2, 72 h",0.047 ± 0.007 µM
same,IC50,"[3]; DD2, read-out: IC50 (µM) P. falciparum (Dd2)",0.017 µM
same,IC50,"[4]; Plasmodium falciparum, NF54, 72 h",28 ± 5 nM
same,IC50,[4],27 nM
same,(%) Gametocyte MED6-189 (average),"[5]; 300nM, day 1 post drug introduction",0%
same,(%) Gametocyte MED6-189 (average),"[5]; 300nM, day 2 post drug introduction",0.1035%
same,(%) Gametocyte MED6-189 (average),"[5]; 300nM, day 3 post drug introduction",0.55%
same,% Change of gametocytemia,"[5]; 300nM, day 4",100%
same,(%) Gametocyte MED6-189 (average),"[5]; 300nM, day 4 post drug introduction",1.5%
same,(%) Gametocyte MED6-189 (average),"[5]; 300nM, day 5 post drug introduction",3.175%
same,(%) Gametocyte MED6-189 (average),"[5]; 300nM, day 6 post drug introduction",2.102%
same,(%) Gametocyte MED6-189 (average),"[5]; 300nM, day 7 post drug introduction",1.15%
same,(%) Gametocyte MED6-189 (average),"[5]; 300nM, day 8 post drug introduction",1.35%
same,(%) Gametocyte MED6-189 (average),"[5]; 300nM, day 9 post drug introduction",1.25%
same,inhibition of early gametocyte development vs controls,"[5]; 300 nM, stage III: days 4 to 6",~ 62%
same,gametocytes after high dose,"[5]; early stages of gametocyte development, after 48 hours of drug treatment",no quantifiable gametocytes were observed
same,effect on mature-stage gametocytes,[5]; stage V,little to no effect
